Test results taken from patent US5574059A, “Treating disorders mediated by vascular smooth muscle cell proliferation” (priority 1995, dated 1996).

Legend:
[1] = Example I: patient with intermittent claudication, iliac artery plaques; format: in vivo, human; settings: over 30 days oral; idazoxan 50 and 75 mg/day, UK 14,304 125, naphazoline 125, cirazoline 75, agmatine 900 mg/day
Source text: A person presents with progressive symptoms of intermittent claudication in both legs.

[2] = test system: rat aortic smooth muscle cells; assay: serum-stimulated proliferation, 3H-thymidine incorporation into DNA; format: cell-based; settings: 10% fetal calf serum stimulated
Protocol: Inhibition of serum-stimulated proliferation of rat aortic smooth muscle cells is determined as follows: The antiproliferative effect of potential drug is determined by measuring the incorporation of ^3 H-thymidine into cellular DNA. Exposure of quiescent vascular smooth muscle cell to serum, which contains many growth factors, results in a large increase in cellular proliferation as measured by ^3 H-thymidine incorported into DNA. The inhibitory effect of potential drug on serum-stimulated proliferation is tested by adding a drug before the addition of serum and determining if the serum-stimulated proliferation is reduced. […] In that event, antagonizing of the antiproliferative effect of idazoxan is determined by adding antagonist before the addition of idazoxan to serum-stimulated vascular smooth muscle cells.
In this experiment, the proliferation of vascular smooth muscle cells was determined by measuring DNA replication. The incorporation of ^3 H-thymidine into DNA was used to measure the replication of DNA as described in Erlinge, D., et al, Am. J. Physiol. 265, H1089-H1097 (1993) which is incorporated herein by reference.
Rat aortic smooth muscle cells prepared as described in In Vitro Example 1 were plated into 24-well plates at a density of about 30,000 cells/well in 10% fetal calf serum (FCS). After 48 hours, the cells were starved in 0.5% FCS for another 48 hours to decrease proliferation and induce quiescence. The medium was replaced by serum-free medium 24 hours prior to addition of drug (drugs are described below) and 10% fetal calf serum or only 10% fetal calf serum in the case of the control. The cells were then incubated for 24 hours and ^3 H-thymidine (1 μCi/well) was added at hour 20. At the end of the 24 hour period, the medium was aspirated and the cells were washed three times with phosphate-buffered saline and twice with ice-cold trichloroacetic acid. Fixed cells were then solubilized in 0.2M NaOH and sonicated. A 100 μl aliquot was used for scintillation counting.

[3] = Example IV: patient with fibromuscular dysplasia of the renal artery, angioplasty; format: in vivo, human
rat carotid artery = assay: balloon angioplasty of rat left common carotid artery; format: in vivo; settings: 10 mg/kg/24hr for 7 days, s.c. minipump
Protocol: To determine the actions of idazoxan in inhibiting the proliferation of vascular smooth muscle cells in vivo, we tested the effect of balloon angioplasty in rat carotid artery. Left common carotid artery balloon angioplasty was performed as described by Ohlstein et al, Proc. Natl. Acad. Sci. 90, 6189-6193 (1993). Rats were implanted, subcutaneously, with Alzet minipumps (1 μl/hr delivery rate) containing idazoxan to deliver a dose of 10 mg/kg/24hr for 7 days. Control rats were implanted with minipumps containing sterile saline. Ballon angioplasty of left common carotid artery was performed on fourth day of idazoxan administration and animals were sacrificed 10 days after the surgery. Left and right common carotid arteries were removed, cross-sections (10 μm) were cut in a cryostat and stained with eosin and hematoxylin. Blood vessel layers were quantitated in an imaging system and the ratio of internal and external diameters were calculated.

[4] = Example II: patient with narrowing of right common carotid artery, balloon angiography; format: in vivo, human; settings: idazoxan 50 or 75 mg/day two weeks before and 3 months after balloon angiography; UK 14,304 125, cirazoline 60, naphazoline 125, agmatine 900 mg/day
Protocol: A person presents with a history of intermittent brief episodes of transient monocular blindness in the right eye associated with clumsiness and weakness of the left arm and leg. Angiography indicates substantial narrowing of the right common carotid artery. They are with treated with idazoxan at a dosage of 50 or 75 mg/day for two weeks preceding balloon angiography and for 3 months thereafter.

[5] = test system: human coronary artery smooth muscle cells; assay: 3H-thymidine incorporation in normal human coronary artery smooth muscle cells; format: cell-based
Protocol: In this experiment the antiproliferative action of idazoxan was tested in normal human coronary artery smooth muscle cells (Clonetics Corp.). Proliferation of smooth muscle cells was measured as described above by the incorporation of ^3 H-thymidine into cellular DNA. Following the incubation of semi-confluent smooth muscle cells in serum-free medium for 24 hr, growth is stimulated by either 5% fetal calf serum (FCS) or platelet derived growth factor (PDGF) (10 ng/well) in the presence and absence of various concentrations of idazoxan. […] In Table 4, "DPM" stands for disintegrations per minute which is a measure of the radioactivity incorporated into the cellular DNA by 3H-thymidine.

[6] = Example V: patient with Type I diabetes mellitus, overgrowth of retinal vessels; format: in vivo, human; settings: idazoxan 75 mg/day; UK 14,304 60, naphazoline 125, cirazoline 60, agmatine 900 mg/day
Source text: A person with Type I diabetes mellitus and maintained on insulin presents with progressive symptoms of loss of visual acuity bilaterally with evidence on opthalmascopic examination of overgrowth of retinal vessels and hemorrhages.

[7] = Example III: patient with coronary artery disease, angioplasty; format: in vivo, human
Protocol: A person presents with the onset of chest pain on exertion. […] Ten days before angioplasty, the patient is begun on 75 or 100 mg/day of idazoxan. […] Treatment with 50 mg/day idazoxan is continued for 3 months.

For `c1ccc2c(c1)OCC(C1=NCCN1)O2` (stereo not shown) [Idazoxan, 2-[2-(1,4-benzodioxanyl)]-2-imidazoline], the “symptoms of intermittent claudication” value [1] was “stabilization of symptoms”, the “inhibition of vascular smooth muscle cell proliferation, in words” value [2] was “potently inhibited” and the IC50 ([2]; Rattus norvegicus, 24 h, read-out: 3H-thymidine incorporated (IC50)) was 4.5 ± 1.4 µM. The blood pressure ([3]; idazoxan 75 mg/day for 1 month followed by angioplasty with continued treatment) was “rapid fall of blood pressure to normal”, the “re-elevation of pressure / restenosis of the renal artery” value ([3]; idazoxan 75 mg/day, UK 14,304 60, naphazoline 125, cirazoline 60, agmatine 900 mg/day) was “without evidence months later on re-elevation of pressure or on follow up, of restenosis of the renal artery” and the “internal/external diameter ratio, non-injured right common carotid artery vs control” value (rat carotid artery) was “no significant difference”. The “internal/external diameter ratio of lesion side as percent of control side” value (rat carotid artery; 10 days after surgery, saline control 21.9 ±3.3) was 6.5 ±3.4%, the “lesion side as percent of control side vs saline, in words” value (rat carotid artery; injured left common carotid artery) was “significant decrease” and the “symptoms and restenosis of the vessel” value [4] was “Symptoms disappear without evidence of restenosis of the vessel”. The 3H-thymidine incorporated ([5]; FCS (5%) + idazoxan 1 μM) was 5540 ± 430 DPM/well, the 3H-thymidine incorporated ([5]; FCS (5%) + idazoxan 10 μM) was 2370 ± 230 DPM/well and the 3H-thymidine incorporated ([5]; FCS (5%) + idazoxan 100 μM) was 430 ± 98 DPM/well. For the same compound, the 3H-thymidine incorporated ([5]; PDGF (10 ng/well) + idazoxan 1 μM) was 3220 ± 180 DPM/well, the 3H-thymidine incorporated ([5]; PDGF (10 ng/well) + idazoxan 10 μM) was 1890 ± 210 DPM/well and the 3H-thymidine incorporated ([5]; PDGF (10 ng/well) + idazoxan 100 μM) was 340 ± 60 DPM/well. The “incorporation of 3H-thymidine, in words” value ([5]; stimulated by FCS or PDGF) was “inhibited the incorporation of ^3 H-thymidine”, the “progression and visual symptoms” value [6] was “arrest of the progression and some regression of the visual symptoms” and the “symptoms / restenosis after angioplasty” value ([7]; idazoxan 50 mg/day continued for 3 months, substitutes, dose not stated) was “remains symptomless without evidence of restenosis”. For the same compound, the chest pain ([7]; idazoxan 75 or 100 mg/day from ten days before angioplasty) was “no further chest pain”.
